Reference: publication PMC7178819, “6,7-Dimethoxy-2-phenethyl-1,2,3,4-tetrahydroisoquinoline amides and corresponding ester isosteres as multidrug resistance reversers” (Journal of Enzyme Inhibition and Medicinal Chemistry, 2020)
Marks after values point to notes of the source that are not given here. Each block holds one compound with its values, some of them ahead of it.

How the values were obtained:
BCRP = target: T1, BCRP (Homo sapiens, UniProt Q9UNQ0); assay: Inhibition of Hoechst 33342 efflux in MDCK-BCRP cells; assay type: cell-based; conditions: for BCRP, percentage of the effect: at a concentration of 100 μM, MDCK-BCRP cells; for EC50: Hoechst 33342, MDCK-BCRP cells, NA: not active
T1 construct: expressed in transfected cells; host or cells: MDCK-BCRP (Madin-Darby Canine Kidney cells, gift of Prof. P. Borst, NKI-AVL)
T1 sequence (Q9UNQ0 1-655): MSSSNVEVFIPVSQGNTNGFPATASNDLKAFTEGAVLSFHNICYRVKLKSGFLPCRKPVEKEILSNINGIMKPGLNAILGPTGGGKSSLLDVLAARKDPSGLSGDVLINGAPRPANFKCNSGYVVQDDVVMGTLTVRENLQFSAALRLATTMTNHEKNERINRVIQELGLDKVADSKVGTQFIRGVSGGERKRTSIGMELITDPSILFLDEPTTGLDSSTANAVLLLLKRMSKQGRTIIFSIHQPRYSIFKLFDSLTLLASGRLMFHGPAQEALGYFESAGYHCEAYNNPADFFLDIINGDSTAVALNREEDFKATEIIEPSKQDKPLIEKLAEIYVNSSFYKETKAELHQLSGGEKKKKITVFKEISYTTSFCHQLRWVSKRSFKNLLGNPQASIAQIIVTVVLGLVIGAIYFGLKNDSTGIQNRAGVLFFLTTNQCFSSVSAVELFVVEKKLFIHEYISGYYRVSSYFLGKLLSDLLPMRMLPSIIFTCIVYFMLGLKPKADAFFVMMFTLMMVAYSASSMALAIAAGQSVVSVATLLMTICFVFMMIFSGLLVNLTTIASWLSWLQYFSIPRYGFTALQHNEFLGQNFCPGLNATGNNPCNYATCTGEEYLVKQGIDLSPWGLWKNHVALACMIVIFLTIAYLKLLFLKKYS
Procedure: These experiments were carried out as described by Teodori et al.[34]. Each cell line (30 000 cells per well) was seeded into black CulturePlate 96/wells plate with 100 µL medium and allowed to become confluent overnight. 100 µL of test compounds were solubilised in culture medium and added to monolayers, with final concentrations ranging from 1 to 100 µM. 96/Wells plate was incubated for 30 min in a humidified atmosphere 5% CO2 at 37 °C. Hoechst 33342 was added in 100 µl of phosphate-buffered saline (PBS) to yield a final concentration of 8 µM and plate was incubated for 30 min in a humidified atmosphere 5% CO2 at 37 °C. The supernatants were drained, and the cells were fixed for 20 min under light protection using 100 µL per well of a 4% PFA solution. Each well was washed three times with ice cold PBS. Saline buffer was added to each well and the plate was read with Victor3 (PerkinElmer) at excitation and emission wavelengths of 340/35 nm and 485/20 nm, respectively. In these experimental conditions, Hoechst 33342 accumulation in the absence and in the presence of tested compounds was evaluated and fluorescence basal level was estimated with untreated cells. In treated wells, the increase of fluorescence with respect to basal level was measured. EC50 values were determined by fitting the fluorescence increase percentage versus log[dose]. […]

A549/DX cells = assay: Co-administration assay with doxorubicin (MTT), A549/DX cells; assay type: cell-based, human; conditions: compound 10 µM + 10 µM doxorubicin
Procedure: (§1) The co-administration assay with doxorubicin was performed in MDCK-MDR1, HT29, HT29/DX, A549 and A549/DX cells at 48 h. On day 1, 10,000 cells/well were seeded into 96-well plates in a volume of 100 µL of fresh medium. On day 2, the tested drug was added alone to the cells at different concentrations (ranging from 40 nM to 10 µM). On day 3, the medium was removed and the drug at the same concentrations was added alone and in co-administration with 10 µM doxorubicin to the cells. After the established incubation time with the tested drug, MTT (0.5 mg/mL) was added to each well, and after 3 − 4 h incubation at 37 °C, the supernatant was removed. The formazan crystals were solubilised using 100 µL of DMSO/EtOH (1:1), and the absorbance values at 570 and 630 nm were determined on the microplate reader HTX Synergy (Bio-Tek Instruments).

A549 cells = assay: Co-administration assay with doxorubicin (MTT), A549 cells; assay type: cell-based, human; conditions: compound 10 µM + 10 µM doxorubicin
Procedure: as §1

HT29/DX cells = assay: Co-administration assay with doxorubicin (MTT), HT29/DX cells; assay type: cell-based, human; conditions: compound 10 µM + 10 µM doxorubicin
Procedure: as §1

HT29 cells = assay: Co-administration assay with doxorubicin (MTT), HT29 cells; assay type: cell-based, human; conditions: compound 10 µM + 10 µM doxorubicin
Procedure: as §1

MRP1 = target: T2, MRP1 (Homo sapiens, UniProt P33527); assay: Inhibition of Calcein-AM efflux in MDCK-MRP1 cells; assay type: cell-based; conditions: for MRP1, percentage of the effect: at a concentration of 100 μM; for EC50: Calcein-AM, NA: not active
T2 construct: expressed in transfected cells; host or cells: MDCK-MRP1 (Madin-Darby Canine Kidney cells, gift of Prof. P. Borst, NKI-AVL)
Procedure: These experiments were carried out as previously described by Teodori et al. with minor modifications. Each cell line (30 000 cells per well) was seeded into black CulturePlate 96/wells plate with 100 µL medium and allowed to become confluent overnight. 100 µL of test compounds were solubilised in culture medium and added to monolayers, with final concentrations ranging from 1 nM to 100 µM. 96/Wells plate was incubated for 30 min in a humidified atmosphere 5% CO2 at 37 °C. Calcein-AM was added in 100 µL of Phosphate Buffered Saline (PBS) to yield a final concentration of 2.5 µM and plate was incubated for 30 min in a humidified atmosphere 5% CO2 at 37 °C. Each well was washed 3 times with ice cold PBS. Saline buffer was added to each well and the plate was read with Victor3 (PerkinElmer) at excitation and emission wavelengths of 485 and 535 nm, respectively. In these experimental conditions, Calcein cell accumulation in the absence and in the presence of tested compounds was evaluated and fluorescence basal level was estimated with untreated cells. In treated wells the increase of fluorescence with respect to basal level was measured. EC50 values were determined by fitting the fluorescence increase percentage versus log[dose].
The interaction potency between the designed compounds and P-gp was evaluated by measuring the transport inhibition of the pro-fluorescent probe Calcein-AM, that is a P-gp substrate, in a cell line overexpressing P-gp (MDCK-MDR1)[47]. The P-gp interacting profile was further investigated with two other assays: the Apparent Permeability (Papp) determination (BA/AB) in Caco-2 cell monolayer[48]^,[49], and the ATP cell depletion in the MDCK-MDR1 cell line[50]. Taking into account the results of the combined tests, an interacting compound can be classified as substrate or inhibitor. Papp determination measures the ratio between two fluxes: from the basolateral to apical compartments (BA, representative of passive diffusion) and from the apical to basolateral compartments (AB, representative of active transport). […] In the same manner, if (BA/AB) >2, the compound should probably be classified as a substrate. […] The selectivity of ligands 1–26 was evaluated by detecting their activity towards the other ABC transporters MRP1 and BCRP, by measuring the inhibition of the efflux of Calcein-AM (i.e., also a MRP1 substrate) in cells overexpressing MRP1 (MDCK-MRP1 cells), and the inhibition of the efflux of the fluorescent probe Hoechst 33342 (i.e. a BCRP substrate) in cells overexpressing BCRP (MDCK-BCRP cells), respectively.

T2 sequence (P33527 whole entry): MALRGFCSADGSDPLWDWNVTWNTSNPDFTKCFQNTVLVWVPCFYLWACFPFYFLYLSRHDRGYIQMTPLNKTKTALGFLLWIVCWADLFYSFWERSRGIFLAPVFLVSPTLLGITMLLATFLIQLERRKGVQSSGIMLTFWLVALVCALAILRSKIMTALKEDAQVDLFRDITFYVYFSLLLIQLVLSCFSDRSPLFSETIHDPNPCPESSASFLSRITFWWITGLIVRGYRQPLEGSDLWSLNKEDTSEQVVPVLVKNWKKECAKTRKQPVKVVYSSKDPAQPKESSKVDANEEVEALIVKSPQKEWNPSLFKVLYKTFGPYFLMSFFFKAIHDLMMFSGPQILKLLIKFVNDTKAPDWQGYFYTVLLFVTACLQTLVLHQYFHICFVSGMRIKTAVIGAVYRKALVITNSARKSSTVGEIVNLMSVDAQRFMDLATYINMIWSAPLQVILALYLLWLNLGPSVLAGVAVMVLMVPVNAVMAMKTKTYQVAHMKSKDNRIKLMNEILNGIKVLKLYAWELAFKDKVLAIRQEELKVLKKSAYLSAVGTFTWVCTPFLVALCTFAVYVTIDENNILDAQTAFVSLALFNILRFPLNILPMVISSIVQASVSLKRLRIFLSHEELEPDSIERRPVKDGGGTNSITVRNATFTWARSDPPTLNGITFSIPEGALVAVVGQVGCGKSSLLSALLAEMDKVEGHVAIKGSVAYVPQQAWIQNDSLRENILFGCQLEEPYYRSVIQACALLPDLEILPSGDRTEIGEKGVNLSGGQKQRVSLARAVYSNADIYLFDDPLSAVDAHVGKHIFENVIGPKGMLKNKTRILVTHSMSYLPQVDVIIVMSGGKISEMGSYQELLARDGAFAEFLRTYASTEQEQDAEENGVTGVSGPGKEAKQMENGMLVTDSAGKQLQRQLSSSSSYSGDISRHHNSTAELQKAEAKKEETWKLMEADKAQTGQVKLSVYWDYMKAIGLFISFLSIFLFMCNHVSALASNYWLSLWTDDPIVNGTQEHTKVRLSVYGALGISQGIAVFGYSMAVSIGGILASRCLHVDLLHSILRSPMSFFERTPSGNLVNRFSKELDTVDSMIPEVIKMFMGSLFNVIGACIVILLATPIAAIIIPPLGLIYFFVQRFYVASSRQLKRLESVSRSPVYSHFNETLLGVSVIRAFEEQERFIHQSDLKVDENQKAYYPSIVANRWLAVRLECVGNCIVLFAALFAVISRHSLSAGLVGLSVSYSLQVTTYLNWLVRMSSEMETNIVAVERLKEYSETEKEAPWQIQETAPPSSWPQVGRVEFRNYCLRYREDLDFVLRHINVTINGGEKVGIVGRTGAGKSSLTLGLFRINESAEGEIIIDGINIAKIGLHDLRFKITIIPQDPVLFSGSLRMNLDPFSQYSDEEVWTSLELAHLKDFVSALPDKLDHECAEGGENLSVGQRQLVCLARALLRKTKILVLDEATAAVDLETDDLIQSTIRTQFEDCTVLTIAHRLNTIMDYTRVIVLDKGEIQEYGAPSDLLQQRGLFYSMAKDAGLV

Compound: COc1cc2c(cc1OC)CN(CCc1ccc(OC(=O)c3ccc(OC)c(OC)c3OC)cc1)CC2 [Compound 14, 4–(2-(6,7-Dimethoxy-3,4-dihydroisoquinolin-2(1H)-yl)ethyl)phenyl 2,3,4-trimethoxybenzoate]
EC50 (BCRP): 15.1 ± 2.89 µM | EC50 (MRP1): 69.7 ± 13.9 µM

Compound: COc1cc2c(cc1OC)CN(CCc1ccc(NC(=O)c3ccc(OC)c(OC)c3OC)cc1)CC2 [Compound 1, N-(4–(2-(6,7-dimethoxy-3,4-dihydroisoquinolin-2(1H)-yl)ethyl)phenyl)-2,3,4-trimethoxybenzamide]
EC50 (BCRP): 21.2 ± 4.2 µM

Compound: COc1cc2c(cc1OC)CN(CCc1ccc(NC(=O)c3cccc(OC)c3OC)cc1)CC2 [Compound 5, N-(4–(2-(6,7-dimethoxy-3,4-dihydroisoquinolin-2(1H)-yl)ethyl)phenyl)-2,3-dimethoxybenzamide]
BCRP, percentage of the effect (BCRP): 41%^d

Compound: COc1cc2c(cc1OC)CN(CCc1ccc(OC(=O)c3cccc(OC)c3OC)cc1)CC2 [Compound 18, 4–(2-(6,7-Dimethoxy-3,4-dihydroisoquinolin-2(1H)-yl)ethyl)phenyl 2,3-dimethoxybenzoate]
BCRP, percentage of the effect (BCRP): 44%^d

Compound: COc1cc2c(cc1OC)CN(CCc1ccc(OC(=O)c3c(OC)c(OC)cc4ccccc34)cc1)CC2 [Compound 21, 4–(2-(6,7-Dimethoxy-3,4-dihydroisoquinolin-2(1H)-yl)ethyl)phenyl 2,3-dimethoxy-1-naphthoate]
BCRP, percentage of the effect (BCRP): 43%^d

Compound: COc1ccc(C(=O)Nc2ccc(CCN3CCc4cc(OC)c(OC)cc4C3)cc2)c(OC)c1 [Compound 3, N-(4–(2-(6,7-dimethoxy-3,4-dihydroisoquinolin-2(1H)-yl)ethyl)phenyl)-2,4-dimethoxybenzamide]
reduction of cell viability, co-administration with doxorubicin (A549/DX cells): 40% | EC50 (BCRP): 1 ± 0.2 µM | reduction of cell viability, co-administration with doxorubicin (A549 cells): 25% | reduction of cell viability, co-administration with doxorubicin (HT29/DX cells): 35% | reduction of cell viability, co-administration with doxorubicin (HT29 cells): 5% | MRP1, percentage of the effect (MRP1): 31%^d

Second part, led by results:

BCRP, percentage of the effect (BCRP): 35%^d
Compound: COc1cc2c(cc1OC)CN(CCc1ccc(OC(=O)c3cccc4ccccc34)cc1)CC2 [Compound 19, 4–(2-(6,7-Dimethoxy-3,4-dihydroisoquinolin-2(1H)-yl)ethyl)phenyl 1-naphthoate]

MRP1, percentage of the effect (MRP1): 47%^d
Compound: COc1cc2c(cc1OC)CN(CCc1ccc(NC(=O)c3c(OC)c(OC)cc4ccccc34)cc1)CC2 [Compound 8, N-(4–(2-(6,7-dimethoxy-3,4-dihydroisoquinolin-2(1H)-yl)ethyl)phenyl)-2,3-dimethoxy-1-naphthamide]
reduction of cell viability, co-administration with doxorubicin (A549/DX cells): 49% | reduction of cell viability, co-administration with doxorubicin (A549 cells): 25% | reduction of cell viability, co-administration with doxorubicin (HT29/DX cells): 29% | reduction of cell viability, co-administration with doxorubicin (HT29 cells): 10%

BCRP, percentage of the effect (BCRP): 47%^d
Compound: COc1cc2c(cc1OC)CN(CCc1ccc(OC(=O)c3ccccc3OC)cc1)CC2 [Compound 15, 4–(2-(6,7-Dimethoxy-3,4-dihydroisoquinolin-2(1H)-yl)ethyl)phenyl 2-methoxybenzoate]

EC50 (BCRP): 7.3 ± 1.4 µM
Compound: COc1cc2c(cc1OC)CN(CCc1ccc(OC(=O)c3c(OC)ccc4ccccc34)cc1)CC2 [Compound 20, 4–(2-(6,7-Dimethoxy-3,4-dihydroisoquinolin-2(1H)-yl)ethyl)phenyl 2-methoxy-1-naphthoate]

EC50 (BCRP): 11 ± 2 µM | EC50 (MRP1): 87 ± 17 µM
Compound: COc1ccc(C(=O)Oc2ccc(CCN3CCc4cc(OC)c(OC)cc4C3)cc2)c(OC)c1 [Compound 16, 4–(2-(6,7-Dimethoxy-3,4-dihydroisoquinolin-2(1H)-yl)ethyl)phenyl 2,4-dimethoxybenzoate]
